For data set [1], the target named is T1, melibiose permease (MelBSt) (Salmonella typhimurium, UniProt P30878).
T1 construct: made in house; host or cells: E. coli DW2 cells (melB and lacZY), plasmid pK95AHB/WT MelBSt/CH10
The data set is described as follows: MelBSt extraction and solubility at four temperatures, SDS-PAGE and western blotting. It counts as biochemical. To be noted: 1.5 wt %, 90 minutes. The method, then: An experiment was performed to measure structural stability of Salmonella typhimurium melibiose permease (MelBSt) protein by TMGs. The MelBSt protein was extracted from a membrane using TMGs or DDM, and then an amount of the extracted protein and its structure were analyzed by SDS-PAGE and western blotting. A concentration of the amphipathic molecule used was 1.5 wt %, and two types of performance such as protein extraction efficiency and stabilization ability of the compound were simultaneously evaluated by extracting the protein at four temperatures (0, 45, 55, and 65° C.), incubating the protein for 90 minutes at the same temperatures, and measuring an amount of the protein remaining dissolved in an aqueous solution. The amount of the protein extracted and stabilized by each amphipathic molecule was expressed as a relative value (%) with respect to a total amount of the protein contained in a membrane sample not treated with an amphipathic molecule.
Specifically, Salmonella typhimurium MelBSt (melibiose permease) having a 10-His tag at the C-terminus was expressed in E. coli DW2 cells (melB and lacZY) using plasmid pK95AHB/WT MelBSt/CH10. According to the method disclosed in the article written by A. S. Ethayathulla et al. (Nat. Commun. 2014, 5, 2009), cell growth and membrane preparation were performed. A protein assay was performed using a Micro BCA kit (Thermo Scientific, Rockford, Ill.). Using the protocol disclosed in Nat. Methods 2010, 7, 1003-1008 written by P. S. Chae et al., DDM or TMGs were evaluated for MelBSt stability. A MelBSt-containing membrane sample (the final protein concentration was 10 mg/mL) was incubated at four temperatures (0, 45, 55 and 65° C.) for 90 minutes in a 1.5% (w/v) DDM or TMG-containing solubilization buffer (20 mM sodium phosphate, pH 7.5, 200 mM NaCl, 10% glycerol, 20 mM melibiose). To remove insoluble material, ultracentrifugation was performed using a Beckman Optima™ MAX ultracentrifuge equipped with a TLA-100 rotor at 355,590 g at 4° C. for 45 minutes, and then 20 μg of each protein sample was separated using SDS-15% PAGE, followed by immunoblotting using a Penta-His-HRP antibody (Qiagen, Germantown, Md.). MelBSt was measured by an ImageQuant LAS 4000 biomolecular imager (GE Health Care Life Sciences) using a SuperSignal West Pico chemiluminescent substrate.
Background: A western blot detects proteins with antibodies after separation by electrophoresis.

The nature of data set [2]: Hydrodynamic radius of micelles by dynamic light scattering (DLS). The following applies: micelles formed by each agent at 1.0 wt %. It counts as physicochemical. The method, then: A method of measuring the radius of the micelles is not particularly limited, and any method well known in the art, for example, a DLS test may be used.
(§1) Specifically, a CMC was measured using fluorescent staining and diphenylhexatriene (DPH), and the hydrodynamic radii (Rh) of micelles formed by each agent (1.0 wt %) were measured by a DLS test. The measured results were compared with those for the conventional amphipathic molecule (detergent), DDM, and thus are shown in Table 1.

For data set [3], the system named is T2, light harvesting complex I and reaction center (LHI-RC) complex.
T2 construct: His tag (only implied by the Ni-NTA / His-SpinTrap purification); made in house
The data set is described as follows: Stability of LHI-RC complex in amphipathic molecule, UV-visible spectrum over 20 days. The following applies: CMC+0.04 wt % or CMC+0.2 wt %, 20 days at room temperature, FIGS. 7 and 8. In kind it is biochemical, Rhodobacter capsulatus. The method, then:
The super-assembly of R. capsulatus expressed in manipulated R. capsulatus strains was solubilized and purified according to a protocol disclosed in previous literature (P. S. Chae, Analyst, 2015, 140, 3157-3163.). A 10 mL aliquot of a frozen membrane was thawed, and homogenized using a glass tissue homogenizer at room temperature. The homogenate was incubated for 30 minutes at 32° C. under gentle agitation. After addition of 1.0 wt % DDM, the homogenate was further incubated for 30 minutes at 32° C. Following ultracentrifugation, a supernatant containing a solubilized light harvesting complex I and reaction center (LHI-RC) complex was collected, and incubated with an Ni^2+-NTA resin for 1 hour at 4° C. The resin was added to each 10 His-SpinTrap column, and then the resulting product was washed with 500 μL of a coupling buffer (10 mM Tris (pH 7.8), […], 1×CMC DDM) twice. The LHI-RC complex purified by DDM was eluted from the column using a buffer containing 1.0 M imidazole (2×300 μL). […] Protein stability was measured at regular intervals while a protein-amphipathic molecule sample was incubated by measuring the UV-visible spectrum of a specimen in a range of 650 to 950 nm.

Data set [4] is described as follows: Critical micelle concentration by fluorescent staining with diphenylhexatriene (DPH). It counts as physicochemical. The following applies: aqueous solution. The method, then: A method of measuring CMC is not particularly limited, and any method well known in the art, for example, a fluorescent staining method using diphenylhexatriene (DPH) may be used.
as §1

Data set [5] deals with LeuT (leucine transporter). The data set is described as follows: LeuT stability by [3H]-Leu substrate binding, scintillation proximity assay (SPA). It counts as biochemical, Aquifex aeolicus. The method, then: An experiment of measuring LeuT protein stability for TMGs and TMMs was performed. (a) CMC+0.04 wt % or (b) CMC+0.2 wt % of each amphipathic molecule was used, and the evaluation of the LeuT protein stability was performed by taking an advantage of a characteristic of LeuT binding to a substrate through a scintillation proximity assay (SPA) using [^3H]-Leu. […]
Specifically, wild type LeuT (leucine transporter) derived from a thermophilic bacterium, Aquifex aeolicus, was purified by a previously-disclosed method (G. Deckert et al., Nature 1998, 392, 353-358). LeuT was expressed in E. coli C41 (DE3) transformed with pET16b encoding a C-terminus 8×His-tagged transporter (the expression plasmid was provided by Dr E. Gouaux, Vollum Institute, Portland, Oreg., USA). In summary, following isolation of a bacterial membrane and lysis with 1% (w/v) DDM, the protein was allowed to bind to a Ni^2+-NTA resin (Life Technologies, Denmark), and eluted in 20 mM Tris-HCl (pH 8.0), 1 mM NaCl, 199 mM KCl, 0.05% (w/v) DDM and 300 mM imidazole. Afterward, the purified LeuT (approximately 1.5 mg/ml) was diluted with the same buffer used above, from which DDM and imidazole were removed, and then supplemented with TMGs or DDM at the final concentration of CMC+0.04% (w/v). […] SPA was performed using a buffer containing 450 mM NaCl and each of the TMGs and TMMs at the predetermined concentration. The SPA reaction is performed in the presence of 20 nM [^3H]-Leucine and 1.25 mg/ml copper chelate (His-Tag) YSi beads (Perkin Elmer, Denmark). A total [^3H]-Leucine binding degree of each sample was measured using a MicroBeta liquid scintillation counter (Perkin Elmer).

Entries after “also recorded” stand apart in the source; their conditions may differ.

On to `CCCCCCCCCCCCO[C@@H]1O[C@H](CO)[C@@H](O[C@H]2O[C@H](CO)[C@@H](O)[C@H](O)[C@H]2O)[C@H](O)[C@H]1O` [DDM, n-dodecyl-β-D-maltopyranoside, reference compound], for which the “amount of MelBSt solubilized / extraction efficiency” value in data set [1] (0° C.) is reported as “slightly more excellent protein extraction efficiency than TMGs”. The compound further displayed a MelBSt remaining solubilized in data set [1] (55° C.) of 10%. Further, the “MelBSt protein dissolved in aqueous solution” value in data set [1] (65° C.) is given as “not detected”. In data set [2], the “Rh (nm), hydrodynamic radius of micelles” value worked out at 3.4 ± 0.03 nm. In data set [3], the “stability of the LHI-RC complex” value is on record as “significantly reduced complex stabilization as the concentration increased from CMC+0.04 wt % to CMC+0.2 wt %”. In addition, in data set [4], the “CMC” value is listed as about 0.17 mM and the “CMC (wt %)” value is given as about 0.0087 wt %. The “activity of LeuT over time” value in data set [5] (TMMs or DDM at CMC+0.04 wt %, incubation at room temperature, FIG. 13a) is on record as “gradually reduced over time”.
Take `CCCCCCCCCCCCC(CCCC(CCCCCCCCCCCC)(CO[C@@H]1OC(CO)[C@@H](O)C(O)C1O)CO[C@@H]1OC(CO)[C@@H](O)C(O)C1O)(CO[C@@H]1OC(CO)[C@@H](O)C(O)C1O)CO[C@@H]1OC(CO)[C@@H](O)C(O)C1O` (some centres unmarked) [TMG-A12]: the “amount of MelBSt solubilized / extraction efficiency” value in data set [1] (45° C.) was “almost all MelBSt was successfully extracted”. In data set [1] (55° C.), the “amount of MelBSt solubilized / extraction efficiency” value is reported as “excellent protein extraction efficiency was able to be confirmed”. For the same compound, the “Rh (nm), hydrodynamic radius of micelles” value in data set [2] was 3.3 ± 0.09 nm. In data set [4], the “CMC” value is reported as about 0.010 mM and the “CMC (wt %)” value is on record as about 0.0012 wt %. Also, the “substrate-binding ability of LeuT” value in data set [5] (TMGs or DDM at CMC+0.04 wt %, 10 days at room temperature) is “substantially higher substrate-binding ability of the transporter than DDM; also recorded: well maintained for 10 days”.

Values taken from patent US10808003B2, “Amphipathic molecule based on tandem malonate and use thereof” (Industry-University Cooperation Foundation Hanyang …, priority 2017, dated 2020).
